According to PMC8464850, “Sulfonium Ligands of the α7 nAChR” (Molecules, 2021):
Counter-ions that a name gives are not always drawn.

Columns and labels:
α7 nAChR = biological target: T1, α7 nAChR (Homo sapiens, UniProt P36544); experiment: Inhibition of α7 ACh-evoked responses; type: cell-based; details: for effect on 60 µM ACh response at 1 mM: compound 1 mM co-applied with 60 µM ACh
T1 construct: expressed in transfected cells; host or cells: Xenopus laevis oocytes (injected RNA)

α4(2)β2(3) = biological target: T2, α4(2)β2(3) (Homo sapiens, UniProt P17787+P43681); experiment: Activation of heteromeric nAChR by S1: α4(2)β2(3); type: cell-based
T2 construct: expressed in transfected cells; host or cells: Xenopus laevis oocytes (injected RNA)
Source text: Concatamers were used in order to obtain heteromeric receptors with known subunit composition. The β2-6-α4 concatamer was co-expressed with monomeric α4, β2, or α5 to obtain receptors with the composition α4(3)β2(2), α4(2)β2(3), or α4(2)β2(2)α5, respectively. A concatamer of five linked subunits was used to obtain the β3α4 β2α6β2 receptors. The α3β4 receptors were formed from the co-expression of α3 and β4 subunit monomers at equal ratios. Note that the data were initially measured relative to internal ACh control responses for each oocyte (Methods). Responses were subsequently adjusted for the relative values of the ACh controls and the ACh maximum responses for each of the various subtypes, determined in previous experiments.
Figure 6 Activation of heteromeric neuronal nAChR by S1. […] Data are the average peak currents (n = 6–8 oocytes ± SEM), measured relative to initial ACh control responses for each oocyte (concentrations listed in Methods). Responses were subsequently adjusted for the relative values of the ACh controls and the ACh maximum responses for each of the various subtypes, determined in previous experiments. […]
Solutions were applied from 96-well plates via disposable tips. […] The responses were calculated as both peak current amplitudes and net charge, as previously described. […] Multi-cell averages were calculated for comparisons of complex responses. […]

T1 sequence (P36544 23-502): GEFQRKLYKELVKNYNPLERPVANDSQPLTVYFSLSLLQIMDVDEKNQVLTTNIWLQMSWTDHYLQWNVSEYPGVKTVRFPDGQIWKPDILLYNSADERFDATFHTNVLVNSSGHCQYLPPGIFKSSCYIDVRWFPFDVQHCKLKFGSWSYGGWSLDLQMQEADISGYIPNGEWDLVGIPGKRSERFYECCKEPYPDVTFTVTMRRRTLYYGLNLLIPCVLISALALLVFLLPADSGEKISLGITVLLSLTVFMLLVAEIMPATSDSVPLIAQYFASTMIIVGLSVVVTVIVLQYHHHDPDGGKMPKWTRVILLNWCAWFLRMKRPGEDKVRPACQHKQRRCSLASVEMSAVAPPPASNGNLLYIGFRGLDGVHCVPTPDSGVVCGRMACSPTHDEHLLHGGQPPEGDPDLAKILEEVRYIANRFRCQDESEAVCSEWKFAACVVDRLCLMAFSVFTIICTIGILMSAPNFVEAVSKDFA
T2 sequence (P17787 26-502): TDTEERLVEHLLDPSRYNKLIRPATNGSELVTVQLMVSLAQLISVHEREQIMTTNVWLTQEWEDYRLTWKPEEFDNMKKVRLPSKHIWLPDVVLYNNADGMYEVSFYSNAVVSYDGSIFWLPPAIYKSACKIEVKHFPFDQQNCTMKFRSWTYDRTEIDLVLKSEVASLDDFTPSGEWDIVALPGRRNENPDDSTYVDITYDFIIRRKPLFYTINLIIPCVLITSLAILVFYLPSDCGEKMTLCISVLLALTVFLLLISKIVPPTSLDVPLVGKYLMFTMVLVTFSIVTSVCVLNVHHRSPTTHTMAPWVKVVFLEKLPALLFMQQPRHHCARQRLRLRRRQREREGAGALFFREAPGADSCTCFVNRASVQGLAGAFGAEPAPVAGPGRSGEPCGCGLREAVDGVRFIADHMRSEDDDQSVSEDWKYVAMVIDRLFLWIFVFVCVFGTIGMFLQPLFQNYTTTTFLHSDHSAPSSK
T2 sequence (P43681 29-627 limits assumed): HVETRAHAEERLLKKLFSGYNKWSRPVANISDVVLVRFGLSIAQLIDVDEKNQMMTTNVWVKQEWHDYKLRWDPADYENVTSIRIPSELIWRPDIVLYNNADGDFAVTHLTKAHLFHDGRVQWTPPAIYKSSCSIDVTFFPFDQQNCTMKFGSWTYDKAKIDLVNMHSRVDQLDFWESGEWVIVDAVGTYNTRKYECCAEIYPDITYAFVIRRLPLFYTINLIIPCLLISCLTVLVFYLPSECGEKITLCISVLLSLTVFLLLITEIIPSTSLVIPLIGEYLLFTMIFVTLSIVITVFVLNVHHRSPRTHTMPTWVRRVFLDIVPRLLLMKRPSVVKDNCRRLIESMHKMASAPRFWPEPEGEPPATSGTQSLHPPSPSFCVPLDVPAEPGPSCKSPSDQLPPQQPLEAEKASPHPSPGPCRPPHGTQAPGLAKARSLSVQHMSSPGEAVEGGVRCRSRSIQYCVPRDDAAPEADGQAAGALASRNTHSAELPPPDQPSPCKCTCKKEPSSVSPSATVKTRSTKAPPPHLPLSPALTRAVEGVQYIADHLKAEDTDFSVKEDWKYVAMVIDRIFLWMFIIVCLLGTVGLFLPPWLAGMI
T2 sequence (P17787 26-502): as the sequence (P17787 26-502) above

SMILES | effect on 60 µM ACh response at 1 mM (α7 nAChR) | IMax (S1 Activation) (α4(2)β2(3); peak currents relative to ACh maximum) | EC50 (α4(2)β2(3); peak currents, unit inferred) | inhibition of responses to 60 µM ACh (α7 nAChR; compound co-applied at 100 µM, net charge)
C[S+](C)c1cc([N+](=O)[O-])ccc1O.[Br-] [Compound S10, (2-hydroxy-5-nitrophenyl)dimethylsulfonium bromide] | increased the amplitude of the ACh-evoked responses | – | – | –
C[S+](C)C.[I-] [Compound S1, trimethylsulfonium iodide] | – | 0.89 ± 0.44 | 1060 ± 1240 µM | –
C[S+](C)c1ccc(O)cc1 [Compound S9, (4-hydroxyphenyl)dimethylsulfonium methyl sulfate] | significant inhibition | – | – | no inhibition
